Measured values: PubChem BioAssay AID328 (DTP/NCI, 2004)
Several values for one entry are separate records, joined by “and”; a condition that tells them apart may be missing. Equal entries are not always repeated. Inconclusive results and toxic doses are left out.

Test system: BDF1 mice, P388 leukemia ip, median survival T/C
Experiment: NCI In Vivo Anticancer Drug Screen. Data for tumor model P388 Leukemia (intraperitoneal) in B6D2F1 (BDF1) mice
Conditions: endpoint: median survival time, higher = longer survival
In short: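 Antitumour effect was judged in vivo: survival in drug-treated mice, normalised to that of vehicle-dosed controls, gives the reported T/C.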

[1] = dose: 100.0 mg/kg/injection, schedule: Q01DX009 (ip), vehicle: Klucel (hydroxypropylcellulose) (HPC)
[2] = dose: 100.0 mg/kg/injection, schedule: Q04DX003 (ip), vehicle: Klucel (hydroxypropylcellulose) (HPC)
[3] = dose: 200.0 mg/kg/injection, schedule: Q01DX009 (ip), vehicle: Klucel (hydroxypropylcellulose) (HPC)
[4] = dose: 200.0 mg/kg/injection, schedule: Q04DX003 (ip), vehicle: Klucel (hydroxypropylcellulose) (HPC)
[5] = dose: 400.0 mg/kg/injection, schedule: Q04DX003 (ip), vehicle: Klucel (hydroxypropylcellulose) (HPC)
[6] = dose: 50.0 mg/kg/injection, schedule: Q01DX005 (ip), vehicle: saline with Tween-80
[7] = dose: 100.0 mg/kg/injection, schedule: Q01DX005 (ip), vehicle: saline with Tween-80
[8] = dose: 200.0 mg/kg/injection, schedule: Q01DX005 (ip), vehicle: saline with Tween-80
[9] = dose: 200.0 mg/kg/injection, schedule: Q01DX009 (ip), vehicle: saline with Tween-80
[10] = dose: 400.0 mg/kg/injection, schedule: Q01DX009 (ip), vehicle: saline with Tween-80
[11] = dose: 50.0 mg/kg/injection, schedule: Q01DX009 (ip), vehicle: saline with Tween-80
[12] = dose: 100.0 mg/kg/injection, schedule: Q04DX003 (ip), vehicle: saline with Tween-80
[13] = dose: 200.0 mg/kg/injection, schedule: Q04DX003 (ip), vehicle: saline with Tween-80
[14] = dose: 400.0 mg/kg/injection, schedule: Q04DX003 (ip), vehicle: saline with Tween-80
[15] = dose: 25.0 mg/kg/injection, schedule: Q04DX003 (ip), vehicle: saline with Tween-80
[16] = dose: 100.0 mg/kg/injection, schedule: Q01DX009 (ip), vehicle: saline with Tween-80
[17] = dose: 25.0 mg/kg/injection, schedule: Q01DX009 (ip), vehicle: Klucel (hydroxypropylcellulose) (HPC)
[18] = dose: 50.0 mg/kg/injection, schedule: Q01DX009 (ip), vehicle: Klucel (hydroxypropylcellulose) (HPC)

O=C1CCCSc2ccccc21
T/C [1]: 120 % of control
T/C [2]: 100 % of control
T/C [3]: 115 % of control
T/C [4]: 100 % of control
T/C (dose: 400.0 mg/kg/injection, schedule: Q01DX009 (ip), vehicle: Klucel (hydroxypropylcellulose) (HPC)): 115 % of control
T/C [5]: 100 % of control

[O-][n+]1ccccc1Br
T/C (dose: 50.0 mg/kg/injection, schedule: Q04DX003 (ip), vehicle: water): 91 % of control
T/C (dose: 100.0 mg/kg/injection, schedule: Q04DX003 (ip), vehicle: water): 91 % of control

OC(c1ccccc1)c1ccccc1
T/C (dose: 100.0 mg/kg/injection, schedule: Q01DX001 (ip), vehicle: other): 95 % of control
T/C (dose: 200.0 mg/kg/injection, schedule: Q01DX001 (ip), vehicle: other): 104 % of control
T/C (dose: 400.0 mg/kg/injection, schedule: Q01DX001 (ip), vehicle: other): 100 % of control

COc1cc(OC)c2c(O)c3c(c(-c4ccc5cc6c(c(O)c5c4O)C(=O)CC(C)(O)C6)c2c1)CC(C)OC3C (stereo unspecified)
T/C (dose: 0.19 mg/kg/injection, schedule: Q01DX009 (ip), vehicle: olive oil, sesame oil, peanut oil): 106 % of control
T/C (dose: 0.39 mg/kg/injection, schedule: Q01DX009 (ip), vehicle: olive oil, sesame oil, peanut oil): 91 % of control
T/C (dose: 0.78 mg/kg/injection, schedule: Q01DX009 (ip), vehicle: olive oil, sesame oil, peanut oil): 106 % of control
T/C (dose: 1.56 mg/kg/injection, schedule: Q01DX009 (ip), vehicle: olive oil, sesame oil, peanut oil): 102 % of control and 111 % of control

O=C(NCCCl)N(CCCl)C(=O)Oc1c(Cl)cc(Cl)cc1Cl
T/C [6]: 100 % of control
T/C [7]: 112 % of control
T/C [8]: 100 % of control

C/C(=N\Nc1ccc([N+](=O)[O-])cc1[N+](=O)[O-])C(F)(F)F
T/C (dose: 44.0 mg/kg/injection, schedule: Q01DX009 (ip), vehicle: other): 95 % of control
T/C (dose: 66.0 mg/kg/injection, schedule: Q01DX009 (ip), vehicle: other): 100 % of control
T/C (dose: 100.0 mg/kg/injection, schedule: Q01DX009 (ip), vehicle: other): 100 % of control
T/C [2]: 100 % of control
T/C (dose: 150.0 mg/kg/injection, schedule: Q01DX009 (ip), vehicle: other): 95 % of control
T/C [9]: 115 % of control
T/C [4]: 100 % of control
T/C [10]: 100 % of control
T/C [5]: 100 % of control

CCOC(=O)CCC(C)(C#N)c1ccccc1 (stereo unspecified)
T/C [11]: 100 % of control
T/C [12]: 95 % of control
T/C [13]: 91 % of control
T/C [14]: 100 % of control

CCC1CN1P(=O)(Oc1ccc2ccccc2c1)N1CC1CC (stereo unspecified)
T/C [13]: 245 % of control
T/C [14]: 86 % of control

CCC1COC(CC)N1 (stereo unspecified)
T/C [6]: 103 % of control
T/C [7]: 110 % of control
T/C [8]: 120 % of control

O=S(=O)(C1=CCCCC1)C1=CCCCC1
T/C [15]: 104 % of control
T/C (dose: 50.0 mg/kg/injection, schedule: Q04DX003 (ip), vehicle: saline with Tween-80): 99 % of control
T/C [12]: 88 % of control and 100 % of control

CCCn1c2nc(=O)n(C)c(=O)c-2[n+]([O-])c2ccccc21
T/C (dose: 6.25 mg/kg/injection, schedule: Q01DX001 (ip), vehicle: saline with Tween-80): 101 % of control
T/C (dose: 12.5 mg/kg/injection, schedule: Q01DX001 (ip), vehicle: saline with Tween-80): 99 % of control

O=C1C=C(N2CC2)C(=O)C(N2CC2)=C1N1CC1
T/C (dose: 0.02 mg/kg/injection, schedule: Q01DX009 (ip), vehicle: saline): 265 % of control and 328 % of control
T/C (dose: 0.04 mg/kg/injection, schedule: Q01DX009 (ip), vehicle: saline): 98 % of control

N#CC(C#N)C1c2ccccc2C([N+](=O)[O-])c2ccccc21 (stereo unspecified)
T/C [16]: 112 % of control
T/C [9]: 116 % of control
T/C [10]: 112 % of control

CCOC(=O)C1C(=O)C(CN(CCCl)CCCl)C(=O)C(C(=O)OCC)C1c1ccc(O)cc1 (stereo unspecified)
T/C (dose: 0.75 mg/kg/injection, schedule: Q01DX009 (ip), vehicle: Klucel (hydroxypropylcellulose) (HPC)): 180 % of control
T/C (dose: 1.5 mg/kg/injection, schedule: Q01DX009 (ip), vehicle: Klucel (hydroxypropylcellulose) (HPC)): 190 % of control
T/C (dose: 3.0 mg/kg/injection, schedule: Q01DX009 (ip), vehicle: Klucel (hydroxypropylcellulose) (HPC)): 183 % of control
T/C (dose: 3.13 mg/kg/injection, schedule: Q04DX003 (ip), vehicle: saline with Tween-80): 153 % of control
T/C (dose: 6.0 mg/kg/injection, schedule: Q01DX009 (ip), vehicle: Klucel (hydroxypropylcellulose) (HPC)): 266 % of control
T/C (dose: 6.25 mg/kg/injection, schedule: Q01DX009 (ip), vehicle: Klucel (hydroxypropylcellulose) (HPC)): 185 % of control
T/C (dose: 6.25 mg/kg/injection, schedule: Q04DX003 (ip), vehicle: Klucel (hydroxypropylcellulose) (HPC)): 180 % of control
T/C (dose: 6.25 mg/kg/injection, schedule: Q04DX003 (ip), vehicle: saline with Tween-80): 160 % of control
T/C (dose: 11.0 mg/kg/injection, schedule: Q01DX009 (ip), vehicle: Klucel (hydroxypropylcellulose) (HPC)): 209 % of control
T/C (dose: 12.5 mg/kg/injection, schedule: Q01DX009 (ip), vehicle: Klucel (hydroxypropylcellulose) (HPC)): 269 % of control
T/C (dose: 12.5 mg/kg/injection, schedule: Q04DX003 (ip), vehicle: Klucel (hydroxypropylcellulose) (HPC)): 195 % of control
T/C (dose: 12.5 mg/kg/injection, schedule: Q04DX003 (ip), vehicle: saline with Tween-80): 225 % of control
T/C (dose: 16.5 mg/kg/injection, schedule: Q01DX009 (ip), vehicle: Klucel (hydroxypropylcellulose) (HPC)): 232 % of control
T/C (dose: 20.0 mg/kg/injection, schedule: Q04DX003 (ip), vehicle: Klucel (hydroxypropylcellulose) (HPC)): 105 % of control
T/C [17]: 243 % of control and 95 % of control and 190 % of control
T/C (dose: 25.0 mg/kg/injection, schedule: Q04DX003 (ip), vehicle: Klucel (hydroxypropylcellulose) (HPC)): 182 % of control
T/C [15]: 260 % of control and 267 % of control
T/C (dose: 37.5 mg/kg/injection, schedule: Q01DX009 (ip), vehicle: Klucel (hydroxypropylcellulose) (HPC)): 103 % of control
T/C (dose: 50.0 mg/kg/injection, schedule: Q04DX003 (ip), vehicle: Klucel (hydroxypropylcellulose) (HPC)): 89 % of control
T/C (dose: 80.0 mg/kg/injection, schedule: Q04DX003 (ip), vehicle: Klucel (hydroxypropylcellulose) (HPC)): 155 % of control
T/C (dose: 118.0 mg/kg/injection, schedule: Q04DX003 (ip), vehicle: Klucel (hydroxypropylcellulose) (HPC)): 160 % of control
T/C (dose: 177.0 mg/kg/injection, schedule: Q04DX003 (ip), vehicle: Klucel (hydroxypropylcellulose) (HPC)): 175 % of control
T/C [4]: 159 % of control
T/C (dose: 266.0 mg/kg/injection, schedule: Q04DX003 (ip), vehicle: Klucel (hydroxypropylcellulose) (HPC)): 170 % of control
T/C [5]: 180 % of control and 195 % of control

O=C(NC(=O)c1c(F)cccc1F)Nc1cccc(C(F)(F)F)c1
T/C (dose: 25.0 mg/kg/injection, schedule: Q01DX009 (ip), vehicle: saline with Tween-80): 97 % of control
T/C [11]: 99 % of control
T/C [16]: 97 % of control

CC1=C(CO)C(=O)O[C@@H]([C@@H](C)[C@H]2CC[C@H]3[C@@H]4C[C@H]5O[C@]56[C@@H](O)C=CC(=O)[C@]6(C)[C@H]4CC[C@]23C)C1
T/C (dose: 5.0 mg/kg/injection, schedule: Q01DX010 (ip), vehicle: steriod suspending solution): 95 % of control
T/C (dose: 10.0 mg/kg/injection, schedule: Q01DX010 (ip), vehicle: steriod suspending solution): 100 % of control
T/C (dose: 20.0 mg/kg/injection, schedule: Q01DX010 (ip), vehicle: steriod suspending solution): 90 % of control
T/C (dose: 40.0 mg/kg/injection, schedule: Q01DX010 (ip), vehicle: steriod suspending solution): 104 % of control

O=C(SCC(NSc1ccccc1[N+](=O)[O-])C(=O)O)c1ccccc1 (stereo unspecified)
T/C (dose: 12.0 mg/kg/injection, schedule: Q01DX009 (ip), vehicle: Klucel (hydroxypropylcellulose) (HPC)): 105 % of control
T/C [17]: 115 % of control
T/C [18]: 115 % of control
T/C [1]: 110 % of control
T/C [3]: 105 % of control

CCS(=O)(=O)C(Br)CBr (stereo unspecified)
T/C [17]: 114 % of control
T/C [18]: 114 % of control
T/C [1]: 105 % of control and 107 % of control
